assay: physchem

pKa	SMILES
8.8	CCc1nc2ccccc2n1CC(=O)c1ccc(Cl)c(S(N)(=O)=O)c1
8.8	NS(=O)(=O)c1cc(C(=O)Cn2cnc3ccccc32)c(SCCc2ccccc2)cc1Cl
8.8	NS(=O)(=O)c1cc(C(=O)CN2CCCc3ccccc32)ccc1Cl
8.8	NS(=O)(=O)c1cc(C(=O)Cn2ccnc2)ccc1Cl
8.8	NS(=O)(=O)c1cc(C(=O)Cn2cnc3ccccc32)ccc1Cl
8.3	Cc1cc2ncn(CC(=O)c3cc(S(N)(=O)=O)c(Cl)cc3Cl)c2cc1C
8.8	NS(=O)(=O)c1cc(C(=O)CN2CCc3ccccc32)ccc1Cl
8.3	NS(=O)(=O)c1cc(C(=O)Cn2cnc3ccccc32)c(Cl)cc1Cl
8.8	Cc1cc2ncn(CC(=O)c3cc(S(N)(=O)=O)c(Cl)cc3Sc3ccccc3)c2cc1C
8.8	CC1Cc2ccccc2N1NC(=O)c1ccc(Cl)c(S(N)(=O)=O)c1 (centres undefined) [INDAPAMIDE]
8.8	NS(=O)(=O)c1cc(C(=O)Nn2cnc3ccccc32)c(SC2CCCCC2)cc1Cl
8.8	Cc1cc2ncn(CC(=O)c3ccc(Cl)c(S(N)(=O)=O)c3)c2cc1C
8.3	NS(=O)(=O)c1cc(C(=O)Nn2cnc3ccccc32)c(Cl)cc1Cl
8.8	Cc1nc2ccccc2n1CC(=O)c1ccc(Cl)c(S(N)(=O)=O)c1
8.3	NS(=O)(=O)c1cc(C(=O)Cn2ccnc2)c(Cl)cc1Cl
8.8	CCc1nccn1CC(=O)c1ccc(Cl)c(S(N)(=O)=O)c1
8.8	NS(=O)(=O)c1cc(C(=O)Cn2ccnc2-c2ccccc2)ccc1Cl
8.8	NS(=O)(=O)c1cc(C(=O)Nn2cnc3ccccc32)c(Sc2ccccc2)cc1Cl
8.8	NS(=O)(=O)c1cc(C(=O)Cn2cnc(-c3ccccc3)c2-c2ccccc2)ccc1Cl

Source: ChEMBL document CHEMBL4184200, “Benzimidazole design, synthesis, and docking to build selective carbonic anhydrase VA inhibitors” (Bioorg Med Chem, 2018)
